Experimental findings from US20110293745A1, “AURORA KINASE INHIBITORS” (SUNESIS PHARMACEUTICALS, INC., priority 2008, published 2011) are described below.

SMILES strings stand for the structures.

The test system of data set [1] is pHH3 in HCT 116 xenograft tumor. Put plainly: Plasma concentration versus pHH3 in tumor (Western blot, ELISA, HPLC-MS/MS). Type of data set: in vivo, mouse.
Description: When tumors reached an average volume of 400 mm^3, mice were sorted into randomized groups of 3 per time point. […] Tumor samples were frozen on liquid nitrogen, and ground into a fine powder. Lysis buffer containing phosphatase inhibitors was added to the tumor powder before homogenization and a snap freeze cycle. The cellular debris was removed by centrifugation, and the protein concentration was measured using the BioRad DC Protein Assay. […] Protein was transferred to PVDF membrane at a constant 30 V for 1 hr using the Invitrogen XCell II Blot Module transfer system and, upon completion, the membranes were incubated with 5% milk in TBST (Tris-buffered saline with Tween) at room temperature for 1 hr. […] Membranes were washed with TBST, and antibodies were detected with ECL Plus chemiluminescent detection system (Amersham), followed by exposure to Kodak BioMax film.
Films were visually assessed for total histone H3 (HH3) and histone H3 phosphorylation (pHH3). Total HH3 levels served as loading controls.
Phospho-histone H3 levels were determined using a commercial ELISA kit from (# KHO0671, Biosource/Invitrogen). The conditions were as described by the manufacturer with 100 μg total proteins from tumor lysates prepared as described in this Example.
Preparation of Plasma Samples. […]
The nature of data set [2]: Mass balance, elimination, autoradiography and metabolites with 14C-label. Type of data set: in vivo. The note with it: IV bolus 50 mg/kg, male rats, whole-body autoradiography.
Data set [3] can be described thus: Pharmacokinetics, single bolus intravenous injection. Type of data set: in vivo, CD-1 mice. To be noted: CD-1, mouse, plasma, 5 mg/kg. An excerpt: Pharmacokinetic parameters were estimated using noncompartmental analysis within WinNonlin v. 4.1. Quantification of Compound 2 was done by HPLC-MS/MS after extraction from plasma with acetonitrile. […] For rising dose experiments measuring exposure for each species, sets containing several animals were singly dosed at a given dose. Results from single-dose experiments are shown in FIG. 10A, Table 43, and in FIG. 10B and Table 44, respectively. […] C0 is initial concentration extrapolated to time zero. AUCINF is area under the plasma-concentration time curve from time zero extrapolated to the infinite time. CL is clearance; Vss is steady state volume of distribution. T1/2 is half-life.

Data set [4] is described as follows: Distribution of compound in tumor and plasma, HCT 116 xenograft mice. Type of data set: in vivo, mouse. To be noted: for half-life: female, nu/nu athymic, mouse, ip, 170 mg/kg. How it is done: The studies in Examples 20, 21, and 22 used female mice nu/nu athymic mice. Compound 1 was formulated fresh each week for dosing. […] HCT 116 colorectal carcinoma cells were implanted in the animals' right hind flanks subcutaneously with 200 μL of a 2.5×10^7 cells/mL suspension [1:1 Dulbecco's PBS (DPBS) with cells:Matrigel™. […] Dosing schedules are provided separately for each of the studies in Examples 28, 29, and 30. […] Terminal blood and tumor samples were harvested between 15 min and 96 hr. Female nu/nu athymic mice received HCT 116 colorectal cancer cell suspension (1:1 DPBS with cells:Matrigel) as a subcutaneous injection in the right hind flank. […] For HPLC-MS/MS, the detector consisted of an API4000 (Sciex/ABI, Foster City, Calif.) triple quadrapole mass spectrometer using turbo electrospray ionization.

The nature of data set [5]: Clinical serum concentration versus target threshold. Type of data set: in vivo, human. The note with it: patients; for Duration of target serum concentration: target serum concentration 1 μM.
In the next data set the test system is HCT 116 tumor xenograft. Put plainly: Microscopy of tumor sections (Caspase-3, H&E). Type of data set: in vivo, mouse. To be noted: 170 mg/kg twice-weekly for three weeks. The procedure: The studies in Examples 20, 21, and 22 used female mice nu/nu athymic mice. Compound 1 was formulated fresh each week for dosing.
HCT 116 colorectal carcinoma cells were implanted in the animals' right hind flanks subcutaneously with 200 μL of a 2.5×10^7 cells/mL suspension [1:1 Dulbecco's PBS (DPBS) with cells:Matrigel™. For each of the studies of compound distribution, pHH3 levels, and tumor section microscopy, after the tumors reached an average volume of 500 mm^3, the animals were weighed and sorted into randomized groups before initial dosing. Dosing schedules are provided separately for each of the studies in Examples 28, 29, and 30.
Following the treatment, tumors were harvested, placed in Streck fixative, paraffin embedded, sectioned, and transferred to slides. Tumor sections were stained with hematoxylin and eosin (H&E). Hematoxylin stains negatively charged nucleic acid structures, such as nuclei and ribosomes, blue, whereas eosin stains proteins pink. Treatments were administered on Day 1, 4, 8, 11, 15, and 18, with tumors being excised Day 4, 11, 18, and 25 of the study. All images in this Figure were taken at 40× magnification.

The next data set has as its system A375 melanoma xenograft. Briefly: In vivo efficacy, mouse xenograft. How it is done: Percent TGI is then calculated with the following equation: […]
Time To Endpoint (TTE) was calculated for each individual animal to reach the predetermined study end point where the tumor volume becomes 1200 mm^3 or 10% of body weight or a greater than 20% body weight loss for two sequential measurements. The TTE is calculated and the median value is recorded for the group. Tumor Growth Delay (TGD) is then calculated with the following equation: […]
A375 melanoma tumor fragments (1 mm^3) were implanted subcutaneously in the right hind flank of mice. After 9 days, when tumors reached an average volume of approximately 110 mm^3, animals were weighed, randomized by tumor volume (l×w×h×0.52), and assigned to the various study groups before initial dosing.

The next data set deals with T1, DDR2 (Homo sapiens, UniProt Q16832).
T1 construct: purchased Upstate Biotechnology, Dundee, UK
Put plainly: Radiometric kinase assay (Upstate panel). Type of data set: biochemical.

The test system of another data set is HCT 116 cells. Briefly: Flow cytometry, DNA content (propidium iodide). Type of data set: cell-based, human. The note with it: 36 nM, 16 hours. How it is done: HCT 116 cells were seeded at 10,000 cells per well in 12-well plates and cells were incubated 24 hr at 37° C. […] After 16 hrs, media was aspirated and placed in a labeled collection tube, cells were trypsinized with 100 μL trypsin for 5 min at room temperature, quenched with fresh media, and placed in the collection tube with their appropriate media aspirate. Cells were spun at 2000 RPM for 5 min, supernatant was aspirated, and cells were re-suspended in 50 μl, 1× phosphate buffered saline (PBS) and 200 μL 100% methanol. Samples were then placed at −20° C. Cells fixed in methanol were spun at 2000 RPM for 5 min, supernatant was removed and cells were washed with 500 μL 0.1% bovine serum albumin (BSA) in PBS. Cells were re-suspended in 100 μL propidium iodide (PI) staining solution [prepared from 10 μg/mL PI (Sigma #P4864), 100 μg/mL RNase (Sigma #R4642) in PBS] and incubated at 37° C. for 1 hr. Cell populations were then analyzed by flow cytometry on Fluorescence-Activated Cell Sorter (FACS) instrumentation (FACSCalibur; Becton-Dickinson) according to common techniques. The distribution of cells in the various phases of cell cycle was assessed by propidium iodide (PI) staining of DNA. The total intensity of PI was considered to reflect the DNA content of cells.
(In flow cytometry, cells or beads pass a laser one at a time.)

The next data set has as its target Aurora C (Homo sapiens, UniProt Q9UQB9). Briefly: HTRF-based biochemical IC50 assay. An excerpt:
[…]. A biotin-conjugated histone H3 peptide (Upstate Biotechnology) was used as a substrate.
For orientation: In TR-FRET formats the signal depends on donor and acceptor labels being close together.

The test system of the next data set is pHH3 in HT-29. Briefly: cells. The note with it: Homo sapiens, HT-29, 1 h, read-out: pHH3 IC50.

Chain of Aurora C (Q9UQB9 whole entry): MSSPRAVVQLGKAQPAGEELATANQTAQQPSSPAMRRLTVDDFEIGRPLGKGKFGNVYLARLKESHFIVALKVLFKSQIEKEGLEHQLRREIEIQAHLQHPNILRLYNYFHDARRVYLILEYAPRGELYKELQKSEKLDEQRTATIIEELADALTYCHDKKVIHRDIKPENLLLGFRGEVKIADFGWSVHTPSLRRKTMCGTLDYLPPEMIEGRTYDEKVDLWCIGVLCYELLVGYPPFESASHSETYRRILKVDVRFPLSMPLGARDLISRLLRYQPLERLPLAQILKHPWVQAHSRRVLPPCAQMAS
T1 sequence (Q16832 22-855): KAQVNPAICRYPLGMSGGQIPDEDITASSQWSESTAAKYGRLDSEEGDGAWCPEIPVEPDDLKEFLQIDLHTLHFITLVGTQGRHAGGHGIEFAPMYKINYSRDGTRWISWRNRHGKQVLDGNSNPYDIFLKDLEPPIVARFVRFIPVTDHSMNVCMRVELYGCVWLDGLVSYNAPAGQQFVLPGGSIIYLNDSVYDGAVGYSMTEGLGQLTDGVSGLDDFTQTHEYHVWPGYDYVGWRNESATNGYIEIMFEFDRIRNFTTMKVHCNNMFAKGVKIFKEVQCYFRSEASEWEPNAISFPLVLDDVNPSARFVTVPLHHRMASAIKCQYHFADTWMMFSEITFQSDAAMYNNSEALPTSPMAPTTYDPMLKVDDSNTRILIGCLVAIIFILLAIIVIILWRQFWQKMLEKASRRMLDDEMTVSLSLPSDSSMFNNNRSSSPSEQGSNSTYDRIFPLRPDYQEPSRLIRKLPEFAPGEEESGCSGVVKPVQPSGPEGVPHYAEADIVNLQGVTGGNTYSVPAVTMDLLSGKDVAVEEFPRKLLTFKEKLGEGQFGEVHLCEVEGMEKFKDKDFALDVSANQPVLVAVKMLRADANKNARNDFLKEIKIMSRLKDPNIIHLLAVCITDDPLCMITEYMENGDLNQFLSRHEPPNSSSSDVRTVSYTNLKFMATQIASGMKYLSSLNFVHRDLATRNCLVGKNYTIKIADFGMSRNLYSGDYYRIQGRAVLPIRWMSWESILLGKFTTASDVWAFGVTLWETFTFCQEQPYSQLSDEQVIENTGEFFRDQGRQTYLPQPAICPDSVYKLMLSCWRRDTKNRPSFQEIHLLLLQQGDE

What is called AUC(0-inf) is total exposure, with the tail of the curve extrapolated. Low readings indicate low exposure, high ones high exposure. Usually clearance stands for the volume of plasma or blood freed of the substance per unit of time. Read a high clearance as a high capacity for elimination. By half-life is commonly meant the time in which the quantity being followed falls by half. Take `O=C(Nc1cccc(Cl)c1)Nc1ncc(CCNc2ncnc3ccsc23)s1` [Compound 2, 1-(3-chlorophenyl)-3-{5-[2-(thieno[3,2-d]pyrimidin-4-ylamino)ethyl]thiazol-2-yl}-urea]: the “plasma concentration that produced maximal inhibition of phosphorylation of Histone H3 in tumor” value in data set [1] (1 hr postdose, HCT 116 xenograft mice, FIG. 43B) was determined as 5 µM. Also, in data set [2], the “time of maximum tissue concentrations of radioactivity” value came out at 1 h. Also, the total exposure AUC(0-inf) in [3] stood at 1800 ng·h/mL. The same molecule returned a C0 in data set [3] of 7100 ng/mL. The molecule further gave a clearance in data set [3] of 47.6 mL/min/kg. Further, the half-life in data set [3] is 1.4 h; in data set [4] (plasma, read-out: half-life in plasma (converted)), 4.7 h; in [4] (tumor, read-out: half-life in tumor (converted)) it was 7.5 h. Besides, the Vd in data set [3] (read-out: Vss) amounted to 1 L/kg. Further, the “serum levels versus preclinical target inhibitory levels” value in data set [5] (240 mg/m^2 dose level) is “exceeded the preclinical target inhibitory levels”. Moreover, the “minimum duration target serum concentration was achieved” value in data set [5] (all dose levels) is at least 4 h. In addition, the “Duration of target serum concentration” value in [5] (3-hour infusion of Compound 1, 30 mg/m^2) was determined as 4 h; in data set [5] (3-hour infusion of Compound 1, 60 mg/m^2) it was 8 h; in data set [5] (3-hour infusion of Compound 1, 120 mg/m^2) it was 10 h; in [5] (3-hour infusion of Compound 1, 240 mg/m^2), 20 h; in [5] (3-hour infusion of Compound 1, 480 mg/m^2) it was 20 h.
For orientation: IC50 means the concentration at which inhibition is half-maximal. Regarding `CS(=O)(=O)O.O=C(Nc1cccc(Cl)c1)Nc1ncc(CCNc2ncnc3ccsc23)s1` [Compound 1, 1-(3-chlorophenyl)-3-{5-[2-(thieno[3,2-d]pyrimidin-4-ylamino)ethyl]thiazo}-urea], in [1] (single dose of 170 mg/kg IP), the “time maximal inhibition of phospho-histone H3 in tumor was maintained” value is “up to 24 hours”. The “large polyploid cells in tumor” value with HCT 116 tumor xenograft was “appeared by Day 4 and persisted for at least 25 days”. The “caspase-3 positive cells in tumor versus vehicle” value in the data set on HCT 116 tumor xenograft (up to 18 days) was “significant increase”. The “% TGI” value turned out to be 1.2% in the data set with A375 melanoma xenograft (42.5 mg/kg biw × 3), 20.6% in the data set with A375 melanoma xenograft (85 mg/kg biw × 3) and 65.4% in the data set on A375 melanoma xenograft (170 mg/kg biw × 3). Moreover, the results for the TGD with A375 melanoma xenograft (42.5 mg/kg biw × 3), in the data set on A375 melanoma xenograft (85 mg/kg biw × 3) and in the data set with A375 melanoma xenograft (170 mg/kg biw × 3) were 0 days, 0 days and 7.4 days, respectively. Besides, the IC50 on DDR2 was determined as 0.082 µM; on Aurora C (HTRF, N 1) it was 0.0034 µM; in the data set on pHH3 in HT-29, 60 nM. Moreover, the “DNA content of cells” value in the data set with HCT 116 cells is “predominantly 4N and 8N DNA content”. In addition, the “time measurable drug levels are sustained in the HCT 116 tumor” value in [4] (post-dose) is “more than 96 hours”. Moreover, the “IC50 values, Aurora kinase C (summary in words)” value against Aurora C was “low nanomolar range”.
